In US9988341B2, “Bacterial topoisomerase inhibitors and use thereof” (THE FLORIDA INTERNATIONAL UNIVERSITY BOARD OF TRUSTEES, priority 2016, dated 2018):
≈ marks a conversion by molar mass, not a printed value.

How the values were obtained:
[1] = system: M. smegmatis mc2 155/pTA-M+; assay: microbe, parasite or virus in culture; format: cell-based; details: Mycolicibacterium smegmatis, MC2155, read-out: MIC, M. smegmatis mc2 155/pTA-M+
M. smegmatis = M. smegmatis loss of viability (viable colony counts); format: cell-based

| SMILES | MIC [1] | Time course of loss of viable colony counts, MtbTopI overexpression (M. smegmatis) |
| --- | --- | --- |
| CCCC[C@@H](CN[C@H](CN)CCCCNC)NCc1cccc2ccccc12 [Compound 2471-12, (S)—N6-methyl-N2-((S)-2-(naphthalen-1-ylmethylamino)hexyl)hexane-1,2,6-triamine] | 50 µM (≈ 19.2 µg/mL) | reduction of cell killing |
| CCCC[C@@H](CN[C@@H](CN)CCCCNC)NCc1cccc2ccccc12 [Compound 2471-36] | 50 µM (≈ 19.2 µg/mL) | – |
